Test results reported in patent publication US6593335B1, “Potassium channel openers” (Abbott Laboratories, priority 1997, dated 2003).

Key:
potassium channels = potassium channels (Sus scrofa, UniProt F1SR11); experiment: Functional potassium channel opening activity in isolated Landrace pig bladder strips (field-stimulated twitch)
Summary of the method: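 Landrace pig bladder strips with the mucosa removed were field-stimulated (0.05 Hz, 0.5 ms, 20 V) in Krebs Ringer bicarbonate containing propranolol, and primed with 80 mM KCl. Cumulative concentration-response curves gave maximal efficacy relative to a reference potassium channel opener, pD2, and a potency index (reference ED50/test ED50) averaged across tissues.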

Male CD rats = experiment: In-vivo bladder efficacy protocol (isovolumetric contractions model); design: species or system rat
Text: The utility of compounds of the inyention for the treatment of urinary incontinence, bladder overactivity and bladder instability is illustrated by the ability of compounds of the inyention to affect bladder contractions in-vivo. The following method is illustrative of the in-vivo bladder efficacy of compounds of the inyention. In-vivo bladder efficacy protocol (isovolumetric contractions model) Male CD rats (400-450 g) were anesthetized with urethane (0.6 gikg ip +0.6 g/kg sc). The left femoral vein was cannulated with polyethylene (PE-50) tubing for test compound administration. […] The bladder was emptied via this catheter and additionally by applying slight manual pressure on the lower abdomen. The urinary catheter was connected using a Y-tube connector to both a pressure transducer and a syringe pump. The urethra was then ligated using 4-0 silk suture and the bladder was slowly filled using a constant infusion of room temperature saline at the rate of 0.1 ml/min until spontaneous rhythmic contractions were evident (1.0 -1.3 ml). […] Then three doses of a test compound were administered cumulatively iv at 20 minute intervals. […] Area under the curve (AUC) of the bladder contractions was determined from the respective waveforms using a Modular Instruments, Inc. computerized data acquisition system and averaged over the last ten minutes of each twenty minute period.

For `O=C1CCC2=C1C(c1ccc(F)c(Br)c1)C1=C(CCS1(=O)=O)N2` (single isomer, unassigned; (+)) [Example 87], which “Landrace Pig Bladder Index” value (potassium channels; ED50 for P1075 divided by ED50 for the test agonist, averaged over tissues) is on record?
Its value is 0.90.

And the “Landrace Pig Bladder Efficacy (% P1075)” value (potassium channels; maximal efficacy relative to P1075, field stimulation 0.05Hz, 0.5 milli-seconds at 20 volts)?
The value was 100 % P1075.

What about the “Landrace Pig Bladder pD2” value (potassium channels; negative logarithm of ED50) of the same compound?
The value was 7.5.

What about the “reduction in bladder AUC” value (Male CD rats; iv, dose range of 0.01, 0.1) of the same compound?
Its value is “dose dependent reduction in bladder AUC”.

And the AUC ED30 (dose required to reduce the area under the curve of the bladder contractions by 30% relative to control) (Male CD rats; urethane-anesthetized male CD rats, iv cumulative dosing)?
Its AUC ED30 (dose required to reduce the area under the curve of the bladder contractions by 30% relative to control) is 0.06 µmol/kg.
